{
  "source": "patent US20030104461A1",
  "about": "“Methods for detecting cells with numerical chromosomal abnormalities” (priority 2001, published 2003)",
  "key": {"[1]": {"test_system": "human lymphocytes", "description": "Peripheral blood was collected in heparinized vacutainers from healthy male and female volunteers (<40 years of age). Approximate 10 ml of whole blood was dispensed into a Lymphoprep™ tube (Nycomed Pharma AS Diagnostic, Oslo, Norway) containing ˜10 ml of sterile phosphate buffered saline. Following centrifugation for 20 minutes at 2000 rpm, the lymphocyte population was isolated and washed (1X) in PBS. Stock cultures of isolated lymphocytes were established in Williams E medium supplemented with 10% fetal calf serum, 100 U/ml penicillin and 100 ug/ml streptomycin, 2 mM L-glutamine and 1.0% Phytohemmaglutanin-M form (all reagents from Gibco BRL Life Technologies, Inc., Grand Island, N.Y.). The stock cultures were maintained at 37° C. in 5% CO2 atmosphere for about 48 hours. The lymphocytes were treated with 0 to 100 μg/ml of the aneugen, Noscapine, (Sigma Chemicals), a known aneugen, for 24 hours at 37° C.\nThe Noscapine treated and untreated lymphocytes, were then centrifuged for 6 minutes at 1000 rpm, the supernatant was removed and the lymphocytes were resuspended in 5 ml of Phosphate Buffered Saline (PBS; GIBCO BRL). The lymphocytes were then centrifuged, the supernatant removed, and the cells resuspended in 0.5 ml of PBS. The cell suspension was pipetted thoroughly through a 9-inch Pasteur pipette (Kimble Glass Inc.) to ensure single cell suspension. While vortexing a tube containing −20° C. (70%) ethanol (about 4.5 ml volume), the cell suspension was added drop by drop. The ethanol solution was prepared by adding 30 ml of distilled water to 70 ml of 200 proof ethyl alcohol from Phamco Products. The cells were then stored at −20° C. in the ethanol for at least 24 hours.\nThe cells that were stored at −20° C. for at least 24 hours were stained with the H3-P antibody and Alexa Fluor as described above for the H3-P+Alexa (GREEN) stained cells. After the incubation of the cells for 30 minutes at 37° C. with the Alexa Fluor, 5 ml of PBS was added to the cells, the cells were centrifuged, the supernatant removed and the cell pellet resuspended in 1.0 ml of PI/RNase A stain (as described above). The cells were stored on ice until analyzed.\nExited instrument set up mode to acquisition mode. Acquisition for DNA analysis was started and 10,000 ungated cells were acquired. […] The FL2 voltage was optimized as needed per sample (i.e., to keep the G1 peak on 200 of FL2-A x-axis) for Aneuploidy and Polyploidy acquisition. 50,000 ungated cells were acquired from each sample. The data was saved in listmode format.\nThe presence of aneuploid and polyploid cells in the lymphocytes was determined as follows. CellQuest™ Software was opened, and PLOT and OPEN a dialog box from the tool bar for creating a dot plot. FILE was selected and a data file was opened. […] The dot plot was expanded to the width of the paper. A gate was set for the DNA distribution by starting slightly to the left of the cycling population then continuing to the far right region of the dot plot ending the gate at the 2nd Y axis. The extension of this gate to the 2nd Y-axis of the dot plot was to accommodate cells with greater than 4n DNA (see FIG. 1A). PLOT and OPEN a dialog box was chosen from the tool bar for creating a dot plot.\nUsing the interphase cells as a guide, the first gate was set over the mitotic cell area above the G0G1-S phase areas."}, "[2]": {"test_system": "human lymphocytes", "assay": "Manual microscopic analysis of polyploid cells (polyploid index, Giemsa stained slides)", "format": "cell-based", "conditions": "at each concentration of Noscapine; 1000 consecutive mitotic cells scored for 8n mitotic cells", "description": "Human lymphocytes described above and treated or not with Noscapine as described above were subjected to manual analysis of numerical chromosomal abnormalities for comparison with the number of cells having numerical chromosomal abnormalities (i.e. polyploidy) obtained in Example 1. For manual analysis, samples of cells were centrifuged for 6 minutes at 1000 rpm. The supernatant was removed and the cell pellet was resuspended in 5 ml of 1% pre-warmed (37° C.) sodium citrate. The latter solution was prepared by mixing 1 g of […] (Sigma Chemicals) in 100 ml of distilled water. The cells were immediately centrifuged as described above. The supernatant was removed and the pellet was vigorously re-suspended in 5 ml of 4° C. fixative (3:1 methanol:acetic acid). The cells were then centrifuged as described above and the pellet resuspended in 5 ml of 4° C. fixative (3:1 methanol:acetic acid). The cells were then stored overnight at −20° C. or until slide preparation. The slides were prepared as follows. The cells were centrifuged as described above and the supernatant was then poured off. The pellet was re-suspended in about 2 ml of fresh fixative solution. […] The polyploid index was determined by systematically scoring 1000 consecutive mitotic cells for the frequency of 8n mitotic cells under low magnification (bright field)."}, "[3]": {"conditions": "stimulated human lymphocytes treated 24 hours at 37° C., flow cytometry"}},
  "note": "Like-named read-outs stand apart in the source and are kept apart here.",
  "data": [
    {"smiles": "CN[C@H]1CCc2cc(OC)c(OC)c(OC)c2-c2ccc(OC)c(=O)cc21", "note": "[Colcemid®, Colcemid]", "values": [
      {"measurement": "percent of hyperdiploid cells (mitotic cells with DNA content >4n but <8n)", "setting": "[1]", "result": "increased"},
      {"measurement": "percent of hypodiploid cells (mitotic cells with DNA content >2n but <4n)", "setting": "[1]", "result": "increased"},
      {"measurement": "percent of polyploid cells (mitotic cells with DNA content of 8N)", "setting": "[1]", "result": "high"}
    ]},
    {"smiles": "C=C1[C@@H](C)[C@H]2[C@H](Cc3ccccc3)NC(=O)[C@]23OC(=O)/C=C/[C@H](O)CCC[C@@H](C)C/C=C/[C@H]3[C@@H]1O", "note": "[Cytochalasin B]", "values": [
      {"measurement": "percent of hyperdiploid cells (mitotic cells with DNA content >4n but <8n)", "setting": "[1]; [3]", "result": "minimal"},
      {"measurement": "percent of hypodiploid cells (mitotic cells with DNA content >2n but <4n)", "setting": "[1]; [3]", "result": "high"},
      {"measurement": "percent of polyploid cells (mitotic cells with DNA content of 8N)", "setting": "[1]; [3]", "result": "high"}
    ]},
    {"smiles": "COc1ccc2c(c1OC)C(=O)O[C@@H]2[C@H]1c2c(cc3c(c2OC)OCO3)CCN1C", "note": "[Noscapine]", "values": [
      {"measurement": "number of polyploid cells counted manually compared with flow cytometric evaluation", "setting": "[2]", "result": "similar"}
    ]}
  ]
}
